Experimental data: patent US11111251B2, “Positive allosteric modulators of the muscarinic acetylcholine receptor M1” (Vanderbilt University, priority 2016, dated 2021)

Biological target: T1, human mAChR M1 (Homo sapiens, UniProt P11229)
T1 sequence (P11229 1-460): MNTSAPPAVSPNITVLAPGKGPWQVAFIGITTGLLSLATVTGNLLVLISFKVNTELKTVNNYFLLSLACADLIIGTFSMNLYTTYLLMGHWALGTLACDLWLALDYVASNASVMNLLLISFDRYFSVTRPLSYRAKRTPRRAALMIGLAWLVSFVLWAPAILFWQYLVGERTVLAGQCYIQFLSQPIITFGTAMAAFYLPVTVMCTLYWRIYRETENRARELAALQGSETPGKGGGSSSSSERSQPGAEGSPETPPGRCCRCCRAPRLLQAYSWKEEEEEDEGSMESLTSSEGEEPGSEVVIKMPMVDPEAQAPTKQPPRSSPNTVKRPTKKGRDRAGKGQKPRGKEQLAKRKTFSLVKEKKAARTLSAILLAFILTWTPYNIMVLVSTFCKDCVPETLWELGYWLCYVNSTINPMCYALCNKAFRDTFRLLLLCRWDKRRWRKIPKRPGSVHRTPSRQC
Assay: mAChR M1 cell-based functional assay: calcium mobilization, positive allosteric modulator mode (increase in EC20 acetylcholine response)
Settings: Table 2, human M1; for EC50: read-out: Human M1 EC50; for Emax: read-out: Human M1 Emax (%)
Summary of the method: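 PAM potency reflects the concentration-dependent increase in calcium response to an EC20 acetylcholine challenge, given 144 s into a 300 s read after compound addition at 4 s (EC80 follows at 230 s). Cells were hM1-expressing CHO-K1, loaded 50 min with Fluo-4 AM. Curves used 11 points at 1:3 dilutions and four-parameter logistic fitting.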

| EC50 [µM] | Emax [%] | SMILES |
| --- | --- | --- |
| 1.91 | 66.1 | CC1CC(NC(=O)c2cc(Cc3ccc(-c4nccs4)cc3)c3sccc3n2)CC(C)O1 (stereo not drawn) [Compound 386, N-(2,6-dimethyltetrahydropyran-4-yl)-7-[(4-thiazol-2-ylphenyl)methyl]thieno[3,2-b]pyridine-5-carboxamide] |
| 0.0687 | 88.5 | O=C(NC1CC2(COC2)C1)c1cc(Cc2ccc(-c3cscn3)cc2)c2sccc2n1 [Compound 231, N-(2-oxaspiro[3.3]heptan-6-yl)-7-[(4-thiazol-4-ylphenyl)methyl]thieno[3,2-b]pyridine-5-carboxamide] |
| 2.85 | 76.3 | Cc1csc2c(Cc3ccc(-c4ccn(C)n4)cc3)cc(C(=O)N[C@@H]3CCOC3)nc12 [Compound 305, 3-methyl-7-[[4-(1-methylpyrazol-3-yl)phenyl]methyl]-N-[(3R)-tetrahydrofuran-3-yl]thieno[3,2-b]pyridine-5-carboxamide] |
| 0.233 | 65.5 | O=C(NC1CCOCC1)c1cc(Cc2ccc(-c3cncs3)cc2)c2sccc2n1 [Compound 394, N-tetrahydropyran-4-yl-7-[(4-thiazol-5-ylphenyl)methyl]thieno[3,2-b]pyridine-5-carboxamide] |
| 0.175 | 77.7 | Cc1nc(-c2ccc(Cc3cc(C(=O)NC4CCOCC4)nc4ccsc34)cc2)co1 [Compound 230, 7-[[4-(2-methyloxazol-4-yl)phenyl]methyl]-N-tetrahydropyran-4-yl-thieno[3,2-b]pyridine-5-carboxamide] |
| 1.79 | 83.2 | Cc1nc(-c2ccc(Cc3cc(C(=O)N[C@@H]4CCCOC4)nc4ccsc34)cc2)cs1 [Compound 188, 7-[[4-(2-methylthiazol-4-yl)phenyl]methyl]-N-[(3R)-tetrahydropyran-3-yl]thieno[3,2-b]pyridine-5-carboxamide] |
| 5.95 | 81.1 | CN(C(=O)c1cc(Cc2ccc(-c3cscn3)cc2)c2sccc2n1)C1CCOCC1 [Compound 214, N-methyl-N-tetrahydropyran-4-yl-7-[(4-thiazol-4-ylphenyl)methyl]thieno[3,2-b]pyridine-5-carboxamide] |
| > 10 | 34 | Cc1nc(-c2ccc(Cc3cc(C(=O)NC4COC4)nc4ccsc34)cc2)co1 [Compound 147, 7-[[4-(2-methyloxazol-4-yl)phenyl]methyl]-N-(oxetan-3-yl)thieno[3,2-b]pyridine-5-carboxamide] |
| 0.0805 | 70.5 | Cn1ccc(-c2ccc(Cc3cc(C(=O)NC4CCOCC4)nc4ccsc34)cn2)n1 [Compound 350, 7-[[6-(1-methylpyrazol-3-yl)-3-pyridyl]methyl]-N-tetrahydropyran-4-yl-thieno[3,2-b]pyridine-5-carboxamide] |

Continued, compound first:

| SMILES | EC50 [µM] | Emax [%] |
| --- | --- | --- |
| Cn1ccc(-c2ccc(Cc3cc(C(=O)NC[C@@H]4CCCN4)nc4ccsc34)cn2)n1 [Compound 426] | 0.29 | 62.7 |
| Cn1ccc(-c2ccc(Cc3cc(C(=O)NC4CCOCC4(C)C)nc4ccsc34)cn2)n1 (stereo not drawn) [Compound 376, N-(3,3-dimethyltetrahydropyran-4-yl)-7-[[6-(1-methylpyrazol-3-yl)-3-pyridyl]methyl]thieno[3,2-b]pyridine-5-carboxamide] | 0.17 | 60.7 |
| COCC(C)NC(=O)c1cc(Cc2ccc(-c3cnn(C)c3)nc2)c2sccc2n1 (stereo not drawn) [Compound 363, N-(2-methoxy-1-methyl-ethyl)-7-[[6-(1-methylpyrazol-4-yl)-3-pyridyl]methyl]thieno[3,2-b]pyridine-5-carboxamide] | 0.321 | 85.2 |
| Cn1ccc(-c2ccc(Cc3cc(C(=O)NC4CC5(COC5)C4)nc4ccsc34)cn2)n1 [Compound 351, 7-[[6-(1-methylpyrazol-3-yl)-3-pyridyl]methyl]-N-(2-oxaspiro[3.3]heptan-6-yl)thieno[3,2-b]pyridine-5-carboxamide] | 0.143 | 89.9 |
| Cn1cc(-c2cc(F)c(Cc3cc(C(=O)N[C@H]4CCCCC[C@@H]4O)nc4ccsc34)c(F)c2)cn1 [Compound 61, 7-[[2,6-difluoro-4-(1-methylpyrazol-4-yl)phenyl]methyl]-N-[(1S,2S)-2-hydroxycycloheptyl]thieno[3,2-b]pyridine-5-carboxamide] | > 10 | 64.8 |
| CC1(NC(=O)c2cc(Cc3ccc(-n4cccn4)cc3)c3sccc3n2)CCCNC1 (stereo not drawn) [Compound 291, N-(3-methyl-3-piperidyl)-7-[(4-pyrazol-1-ylphenyl)methyl]thieno[3,2-b]pyridine-5-carboxamide] | 1.12 | 64.3 |
| Cc1ncc(Cc2cc(C(=O)N[C@@H]3CCC[C@H]3O)nc3ccsc23)s1 [Compound 133, N-[(1R,2R)-2-hydroxycyclopentyl]-7-[(2-methylthiazol-5-yl)methyl]thieno[3,2-b]pyridine-5-carboxamide] | 3.62 | 77.9 |
| Cn1ccc(-c2ccc(Cc3cc(C(=O)NCC4CCN4)nc4ccsc34)cn2)n1 (stereo not drawn) [Compound 421, N-(azetidin-2-ylmethyl)-7-[[6-(1-methylpyrazol-3-yl)-3-pyridyl]methyl]thieno[3,2-b]pyridine-5-carboxamide] | 0.422 | 66.9 |
| O=C(NC1CCOCC1)c1cc(Cc2ccc(-n3cccn3)cc2)c2sccc2n1 [Compound 228, 7-[(4-pyrazol-1-ylphenyl)methyl]-N-tetrahydropyran-4-yl-thieno[3,2-b]pyridine-5-carboxamide] | 0.16 | 81.8 |
| Cc1csc2c(Cc3ccc(-n4cccn4)cc3)cc(C(=O)N[C@H]3CCOC[C@@H]3O)nc12 [Compound 269, N-[(3R,4S)-3-hydroxytetrahydropyran-4-yl]-3-methyl-7-[(4-pyrazol-1-ylphenyl)methyl]thieno[3,2-b]pyridine-5-carboxamide] | 0.0234 | 77.6 |
| O=C(N[C@@H]1CCC[C@H]1O)c1cc(Cc2ccc(C(F)(F)F)nc2)c2sccc2n1 [Compound 88, N-[(1R,2R)-2-hydroxycyclopentyl]-7-[[6-(trifluoromethyl)-3-pyridyl]methyl]thieno[3,2-b]pyridine-5-carboxamide] | 0.503 | 90.5 |
| Cc1ncc(Cc2cc(C(=O)N[C@@H]3CCCCC[C@H]3O)nc3ccsc23)s1 [Compound 140, N-[(1R,2R)-2-hydroxycycloheptyl]-7-[(2-methylthiazol-5-yl)methyl]thieno[3,2-b]pyridine-5-carboxamide] | 0.306 | 82.8 |
| Cn1ncc2nc(C(=O)NC3CC4(COC4)C3)cc(Cc3ccc(-c4cscn4)cc3)c21 [Compound 489, 1-Methyl-N-(2-oxaspiro[3.3]heptan-6-yl)-7-[(4-thiazol-4-ylphenyl)methyl]pyrazolo[4,3-b]pyridine-5-carboxamide] | 2.75 | 52 |
| Cn1ccc(-c2ccc(Cc3cc(C(=O)N[C@H]4CCCC[C@@H]4O)nc4ccsc34)cn2)n1 [Compound 354, N-[(1S,2S)-2-hydroxycyclohexyl]-7-[[6-(1-methylpyrazol-3-yl)-3-pyridyl]methyl]thieno[3,2-b]pyridine-5-carboxamide] | 0.0148 | 64.2 |
| Cn1cc(-c2ccc(Cc3cc(C(=O)NC4CN(C5COC5)C4)nc4ccsc34)cn2)cn1 [Compound 364] | 0.832 | 83.8 |
